Measured values taken from PMC12508063, “Chloroindazole based estrogen receptor β ligands with favorable pharmacokinetics promote functional remyelination and visual recovery” (Scientific Reports, 2025).
Like-named read-outs stand apart in the source and are kept apart here.

Legend:
EAE mice optic tract = experiment: Optic tract IHC in EAE; assay type: in vivo, mouse
Description: (§1) Animal Perfusions, tissue preparation, and IHC: Mice were deeply anesthetized and euthanized with isoflurane and intracardially perfused with ice‐cold PBS followed by 10% formalin in PBS (Fisher Scientific, Hampton, NH). Eyes, optic nerves, and brain were collected and processed for IHC as previously described[23],[28]. Antibody details are listed in Supplementary Table S6.
(§2) Imaging and Quantification: Retina, optic nerve, and brain sections were imaged using an Olympus BX61 spinning disk confocal microscope with 10× and 40× objectives[23],[28]. Z-stack images were captured and processed using Slidebook 6 and cellSense software. Immunofluorescence intensity and cell counts were quantified using NIH ImageJ, and statistical analysis was performed with GraphPad Prism.
Treatment with K102 alleviated EAE-induced demyelination relative to vehicle-treated mice.
as §1, with “Perfusions,” for “Animal Perfusions,”, “anesthetized” for “anesthetized and euthanized”, “described(8, 9).” for “described[23],[28].”
Imaging and Quantification: Retina, optic nerve, and brain sections were imaged using an Olympus BX61 spinning disk confocal microscope equipped with 10x and 40x Super Apochromat objectives (Olympus America Inc., Cypress, CA) connected to a camera (Hamamatsu Orca‐R2). Z‐stack images were acquired, and projection images were compiled using Slidebook 6 and cellSense software (Intelligent Imaging Innovations Inc, Santa Monica, CA). Immunofluorescence intensity and cell numbers were assessed with NIH ImageJ software (v1. 50i http://rsb.info.nih.gov/ij/) and quantified. Results from all counts were analyzed in GraphPad Prism for statistical significance.

[1] = Plasma protein binding (human)
CYP2C19 [2] = target: T1, CYP2C19 (Homo sapiens, UniProt P33261); experiment: CYP inhibition; conditions: test compounds at 10 μM; substrate Mephenytoin
EAE mice = experiment: EAE clinical disease score; assay type: in vivo, C57BL/6J mouse; conditions: 5 mg/kg/day SC from peak disease
Protocol: EAE induction and treatment: EAE was induced in 8–10-week-old wild-type C57BL/6J mice using MOG₃₅-₅₅ peptide[11],[14],[23]–[25]. Mice were scored daily using a standard clinical scale (0–5) and tested for their ability to stay on a rotarod. […] At peak disease (18–22 days post-immunization), animals were grouped into EAE+Vehicle, EAE+K102, and EAE+K110.
Fig. 3 Experimental design for treatment effects in EAE. (A) Experimental plan. […] Following emulsion injection, mice were injected with pertussis (PTX). Mice were scored for their clinical EAE score daily. EAE mice (red) show signs of disease starting at days 8–17. At peak disease between the days […], therapeutic treatment started and continued daily until the end of the experiment (D35-45). […] N = 6–8 mice/group. Two-Way unbalanced ANOVA with Dunnett’s multiple comparisons test was performed. […]
EAE induction and treatment: Eight to ten-week-old wild-type C57BL/6J mice were induced with active EAE using MOG35-55 peptide as previously described (1-5). […] Animals were scored daily for clinical EAE scores as follows: 0, unaffected; 1, complete tail limpness; 2, failure to right upon attempt to roll over; 3, partial hind limb paralysis; 4, complete hind limb paralysis; […]. At peak disease 18-22 dpi, mice were scored and separated into 3 groups: EAE+V, EAE+SHK-K102, and EAE+K110. […]

[3] = Liver microsome stability (mouse)
[4] = Oral PK of K102 at 40 mg/kg in female monkeys; assay type: in vivo, cynomolgus monkey; conditions: female monkey, PO 40 mg/kg, mean
[5] = hepatocytes
EAE mice retina = experiment: Retina IHC in EAE; assay type: in vivo, mouse
Description: as §1, §2
RGC degeneration and pronounced GFAP immunoreactivity is evident in both MS and EAE[23],[28],[35],[36]. To quantify the number of RGCs, neuronal nuclear marker (NeuN) was used. […]
Imaging and Quantification: Retina, optic nerve, and brain sections were imaged using an Olympus BX61 spinning disk confocal microscope equipped with 10x and 40x Super Apochromat objectives (Olympus America Inc., Cypress, CA) connected to a camera (Hamamatsu Orca‐R2). […] Immunofluorescence intensity and cell numbers were assessed with NIH ImageJ software (v1. 50i http://rsb.info.nih.gov/ij/) and quantified. […]

[6] = mouse, in vivo
Protocol: Mice were dosed intravenously at 5 mg/kg, subcutaneously at 10 mg/kg, and orally at 25 mg/kg.
Only values above the LLOQ.(0.3 ng/mL) were plotted.

[7] = plasma
[8] = microsomes
CYP2C9 = CYP2C9 (Homo sapiens, UniProt P11712); conditions: 10 µM
[9] = plasma; remark: listed apart in the source
CYP2C19 [10] = target: T1, CYP2C19; conditions: 10 µM
[11] = test system: 1A2, 2B6, 2C9, 2C19, 2D6, and 3A4M/T; experiment: CYP inhibition panel summary; assay type: in vitro ADME, human; conditions: 10 µM

T1 sequence (P33261 whole entry): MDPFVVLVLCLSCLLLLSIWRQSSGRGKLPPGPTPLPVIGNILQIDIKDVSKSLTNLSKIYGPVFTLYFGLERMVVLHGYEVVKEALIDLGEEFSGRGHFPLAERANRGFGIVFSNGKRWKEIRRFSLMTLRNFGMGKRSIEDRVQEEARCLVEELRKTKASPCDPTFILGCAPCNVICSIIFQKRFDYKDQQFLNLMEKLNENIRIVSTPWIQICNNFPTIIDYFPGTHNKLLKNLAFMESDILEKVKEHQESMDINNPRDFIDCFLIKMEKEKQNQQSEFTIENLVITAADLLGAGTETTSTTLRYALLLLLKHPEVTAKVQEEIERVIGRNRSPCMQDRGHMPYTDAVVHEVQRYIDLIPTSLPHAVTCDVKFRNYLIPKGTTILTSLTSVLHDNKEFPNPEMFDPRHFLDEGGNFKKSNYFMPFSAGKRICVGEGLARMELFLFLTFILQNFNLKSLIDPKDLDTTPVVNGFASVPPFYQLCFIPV
Sequence of CYP2C9 (P11712 whole entry): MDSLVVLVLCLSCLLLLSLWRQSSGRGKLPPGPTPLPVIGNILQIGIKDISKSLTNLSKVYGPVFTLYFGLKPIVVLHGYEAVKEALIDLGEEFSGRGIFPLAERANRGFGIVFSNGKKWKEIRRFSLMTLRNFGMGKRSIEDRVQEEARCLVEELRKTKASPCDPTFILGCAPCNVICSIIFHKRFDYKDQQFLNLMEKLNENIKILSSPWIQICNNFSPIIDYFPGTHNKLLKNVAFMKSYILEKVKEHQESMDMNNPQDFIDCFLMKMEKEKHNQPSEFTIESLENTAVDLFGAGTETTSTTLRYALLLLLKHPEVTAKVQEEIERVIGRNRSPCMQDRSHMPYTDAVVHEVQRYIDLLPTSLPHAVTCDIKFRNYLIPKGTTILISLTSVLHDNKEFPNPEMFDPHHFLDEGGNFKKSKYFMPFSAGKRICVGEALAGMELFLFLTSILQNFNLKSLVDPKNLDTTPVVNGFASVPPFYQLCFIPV

Q: Which “GFAP, mean value” (EAE mice optic tract) does the source give for `Cc1cc(O)ccc1-n1nc2ccc(O)cc2c1Cl` [Compound K102, IndCl-o-Me] here?
A: The value was “significantly reduced”.

Q: What about the “Iba1, mean value” (EAE mice optic tract) of the same compound?
A: The value was “significantly reduced”.

Q: What about the “MBP, mean value” (EAE mice optic tract) of the same compound?
A: Its value is “alleviated”.

Q: What about the “NFM, mean value” (EAE mice optic tract) of the same compound?
A: The value was “significantly increased”.

Q: And the “SARM1, mean value” (EAE mice optic tract)?
A: The value was “did not produce a significant change”.

Q: And the “GFAP, mean value” (EAE mice optic tract; listed as 102)?
A: Its value is 14.14.

Q: What about the “Iba1, mean value” (EAE mice optic tract; listed as 102) of the same compound?
A: The value was 9.623.

Q: What about the “MBP, mean value” (EAE mice optic tract; listed as 102) of the same compound?
A: Its value is 27.62.

Q: And the “NFM, mean value” (EAE mice optic tract; listed as 102)?
A: The value was 18.64.

Q: And the “SARM1, mean value” (EAE mice optic tract; listed as 102)?
A: The value was 11.45.

Q: And the “Protein Binding (% Bound) Human” value [1]?
A: The value was 97.08%.

Q: What about the “CYP Inhibition Percentage CYP2C19” value (CYP2C19 [2]) of the same compound?
A: The value was 50.50%.

Q: What about the EAE clinical disease (EAE mice) of the same compound?
A: Its EAE clinical disease is “superior attenuation”.

Q: And the “Liver Microsome Stability (Mouse) % Remaining (30 min)” value ([3]; 30 min)?
A: Its value is 30.18%.

Q: And the “Liver Microsome Stability (Mouse) CLint” value ([3]; mouse, microsomes)?
A: Its value is 40.80 µL/min/mg protein.

Q: And the “Liver Microsome Stability (Mouse) t1/2” value ([3]; mouse, microsomes)?
A: The value was 17.12 min.

Q: What about the AUCInf/D [4] of the same compound?
A: Its AUCInf/D is 59.3 kg·ng·h/mL/mg.

Q: And the AUClast [4]?
A: The AUClast was 2373.0 ng·h/mL.

Q: And the Cmax [4]?
A: Its Cmax is 355.3 ng/mL.

Q: And the Tmax [4]?
A: The Tmax was 79.8 min.

Q: For `Oc1ccc(-n2nc3ccc(O)cc3c2Cl)c(O)c1` [Compound K110, IndCl-o-OH], which “Hepatocyte Stability (Mouse) t1/2” value [5] is on record?
A: The value was 6.15 min.

Q: What about the “Hepatocyte Stability (Mouse) % Remaining (15 min)” value ([5]; 0.25 h) of the same compound?
A: The value was 19.46%.

Q: What about the “GFAP, mean value” (EAE mice retina) of the same compound?
A: Its value is 6.695.

Q: What about the “NeuN (RGCs), mean value” (EAE mice retina) of the same compound?
A: The value was 6.167.

Q: What about the Cl_obs ([6]; iv, 5 mg/kg) of the same compound?
A: Its Cl_obs is 158 mL/min/kg.

Q: What about the “Kp AUC0-t (brain/plasma)” value ([6]; iv, 5 mg/kg) of the same compound?
A: Its value is 0.37.

Q: What about the “Kp AUClast (brain/plasma)” value ([6]; iv, 5 mg/kg) of the same compound?
A: Its value is 0.37.

Q: And the Vss_obs ([6]; iv, 5 mg/kg)?
A: Its Vss_obs is 2.23 L/kg.

Q: What about the AUCinf brain ([6]; po, 25 mg/kg) of the same compound?
A: The AUCinf brain was 354 ng·h/g.

Q: What about the AUCinf plasma ([6]; po, 25 mg/kg) of the same compound?
A: Its AUCinf plasma is 780 ng·h/mL.

Q: What about the “Brain/Plasma Ratio(%)” value ([6]; po, 25 mg/kg) of the same compound?
A: Its value is 46%.

Q: And the “Kp AUC0-t (brain/plasma)” value ([6]; po, 25 mg/kg)?
A: Its value is 0.46.

Q: And the “Kp AUClast (brain/plasma)” value ([6]; po, 25 mg/kg)?
A: Its value is 0.41.

Q: What about the AUCinf brain ([6]; sc, 10 mg/kg) of the same compound?
A: The AUCinf brain was 303 ng·h/g.

Q: And the AUCinf plasma ([6]; sc, 10 mg/kg)?
A: Its AUCinf plasma is 1403 ng·h/mL.

Q: And the “Brain/Plasma Ratio(%)” value ([6]; sc, 10 mg/kg)?
A: Its value is 22%.

Q: What about the “F (Bioavailability)” value ([6]; sc, 10 mg/kg) of the same compound?
A: Its value is 133%.

Q: What about the “Kp AUC0-t (brain/plasma)” value ([6]; sc, 10 mg/kg) of the same compound?
A: The value was 0.22.

Q: And the “Kp AUClast (brain/plasma)” value ([6]; sc, 10 mg/kg)?
A: Its value is 0.20.

Q: And the “Protein Binding (% Bound) Human” value [7]?
A: The value was 93.27%.

Q: What about the “Liver Microsome Stability (Mouse) CLint” value [8] of the same compound?
A: The value was 35.28 µL/min/mg protein.

Q: What about the “Liver Microsome Stability (Mouse) t1/2” value [8] of the same compound?
A: The value was 20.06 min.

Q: And the “Liver Microsome Stability (Mouse) % Remaining (30 min)” value ([8]; 0.5 h)?
A: The value was 35.72%.

Q: And the “CYP Inhibition Percentage CYP2C9” value (CYP2C9)?
A: Its value is 18.49%.

Q: What about the “Protein Binding (% Bound) Mouse” value [9] of the same compound?
A: The value was 91.79%.

Q: And the “CYP Inhibition Percentage CYP2C19” value (CYP2C19 [10])?
A: Its value is 27.89%.

Q: And the “CYP inhibition, all other isoforms of the panel” value [11]?
A: The value was less than 50%.
